The values below come from patent US20220264878A1, “HERBICIDAL COMPOSITION CONTAINING R-TYPE PYRIDYLOXY CARBOXYLIC ACID DERIVATIVE AND USE THEREOF” (Qingdao Kingagroot Chemical Compound Co., Ltd., priority 2019, published 2022).

Like-named read-outs stand apart in the source and are kept apart here.

Assay [1] concerns Echinochloa oryzoides. Put plainly: Post-emergence foliage spray, pot culture, fresh weight inhibition (Tables 1-48, 51-98, 101-148; 24 days). The assay is classed as in vivo. On the procedure: (§1) The above weeds were cultivated by a pot culture method. […] Full and uniform weed seeds were selected, soaked in warm water at 25° C. for 6 hours, and germinated in a 28° C. biochemical incubator (darkness). The weed seeds that had just germinatedwere evenly placed on the surface of the soil and then covered with 0.5-1 cm soil according to the sizes of seeds.
(§2) The technical materials were all dissolved in acetone, and diluted with an aqueous solution containing 0.1% emulsifier Tween-80. The dilution is performed as required.
(§3) A ratio of the active ingredient A to the active ingredient B and amounts thereof in each group depends on the characteristics and toxicity of the two agents, as well as the main application purpose of a corresponding formulation. Based on the pre-tests in this study, the dosage of the active ingredient A and B applied alone and in combination were shown in the tables. Water containing the solvent and emulsifier same with the above groups but free of the agents was used as a blank control.
(§4) In the stage of weeds with 3˜4 leaves, the weeds were thinned out to maintain 15 weeds per pot and 45 weeds for each treatment, then continued to be cultured to 5˜6 leaves stage of grassy weeds, 6˜7 leaves stage of broadleaf weeds, and treated.
(§5) The well-cultured weeds were evenly placed on a platform with an area of 0.5 m^2, and a solution of agents was sprayed on the stems and leaves thereof by the 3WP-2000-type walking spray tower at a dosage of 450 kg/ha and at a spray pressure of 0.3 MPa. After all the solution was sprayed, the valve was closed. After 30 seconds, the door of the spray tower was opened, and the nutritional bowl was taken out. Then the valve was opened, and the spray tube was cleaned by spraying 50 ml of water.
(§6) A pot-culture method was employed. For the cultivation of weeds, please refer to the Section 1.1), and “Pesticide guidelines for laboratory bioactivity tests—herbicides”. As to a method for applying agents, please refer to the section 2.3.2), that is, a foliage treatment was employed. After the treatment, the weeds were routinely cultured in a greenhouse.
(§7) A method for investigating absolute number was employed, wherein whole seedlings of survival weeds were cut off with a blade along the soil surface, and the fresh weight of the weeds was weighed with an analytical balance. For dead weeds, the fresh weight thereof was zero.
(§8) Wherein, in the formula, X represented the fresh weight inhibition rate of the active ingredient A in a dosage of P, and Y represented the fresh weight inhibition rate of the active ingredient B in a dosage of Q.

Assay [2] deals with Echinochloa caudate. The assay is described as above. The assay is classed as in vivo. On the procedure:
as §1, §2, §3, §4, §5, §6, §7, §8

The mark [3] stands for this setting: Echinochloa oryzoides, 576 h, B 75 g a.i./ha, read-out: Control effect (%) of B applied alone in corresponding dose.
Where [4] appears, read: Echinochloa oryzoides, 576 h, B 150 g a.i./ha, read-out: Control effect (%) of B applied alone in corresponding dose.
Setting [5] is: Echinochloa oryzoides, 576 h, B 300 g a.i./ha, read-out: Control effect (%) of B applied alone in corresponding dose.
[6] abbreviates: Echinochloa oryzoides, 576 h, B 600 g a.i./ha, read-out: Control effect (%) of B applied alone in corresponding dose.
Setting [7] is: Echinochloa oryzoides, 576 h, read-out: Control effect (%) of B applied alone in corresponding dose.
Setting [8] is: Echinochloa, 576 h, read-out: Control effect (%) of B applied alone in corresponding dose.

As to `CCNc1nc(Cl)nc(NC(C)C)n1` [atrazine], the pest or weed control at 75 g/ha in assay [1] (setting [3]) worked out at 6.7%; in assay [2] (Echinochloa, 576 h, atrazine 75 g a.i./ha, read-out: Control effect (%) of B applied alone in corresponding dose), 3.8%. For the same compound, the pest or weed control at 150 g/ha is 21.7% in assay [1] (setting [4]) and 13.5% in assay [2] (Echinochloa, 576 h, atrazine 150 g a.i./ha, read-out: Control effect (%) of B applied alone in corresponding dose). The pest or weed control at 300 g/ha was found to be 26.4% in assay [1] (setting [5]) and 24.8% in assay [2] (Echinochloa, 576 h, atrazine 300 g a.i./ha, read-out: Control effect (%) of B applied alone in corresponding dose). Besides, the pest or weed control at 600 g/ha in assay [1] (setting [6]) came out at 61.8%; in assay [2] (Echinochloa, 576 h, atrazine 600 g a.i./ha, read-out: Control effect (%) of B applied alone in corresponding dose), 66.5%.
Consider `CS(=O)(=O)c1ccc(C(=O)C2=C(Sc3ccccc3)C3CCC(C3)C2=O)c(Cl)c1` (centres unmarked) [benzobicylon], for which the “Control effect (%) of B applied alone in corresponding dose” value (shortened to “Control effect (%) of B applied alone”) is listed as 9.3% in assay [1] (B 37.5 g a.i./ha); 18.0% in assay [1] (B 75 g a.i./ha); 46.6% in assay [1] (B 150 g a.i./ha); 57.3% in assay [1] (B 300 g a.i./ha); 2.1% in assay [2] (Table 86, 37.5 g a.i./ha); 11.7% in assay [2] (Table 86, 75 g a.i./ha). The “Control effect (%) of B applied alone” value in assay [2] (Table 86, 150 g a.i./ha) was determined as 43.3%; in assay [2] (Table 86, 300 g a.i./ha) it was 54.4%.
Regarding `CCSC(C)CC1CC(=O)C(/C(CC)=N/OC/C=C/Cl)=C(O)C1` (centres unmarked) [clethodim], in assay [1] (setting [7]), the pest or weed control at 7.5 g/ha worked out at 6.7%, the pest or weed control at 15 g/ha came to 19%, the pest or weed control at 30 g/ha was 37.8% and the pest or weed control at 60 g/ha amounted to 62.7%. Also, in assay [2] (setting [8]), the pest or weed control at 7.5 g/ha was 3.4%, the pest or weed control at 15 g/ha is 27%, the pest or weed control at 30 g/ha turned out to be 43.8% and the pest or weed control at 60 g/ha was determined as 67.4%.
Take `CC1(C)CON(Cc2ccccc2Cl)C1=O` [clomazone]: the pest or weed control at 45 g/ha in assay [1] (Echinochloa oryzoides, 576 h, B 45 g a.i./ha, read-out: Control effect (%) of B applied alone in corresponding dose) came out at 8.6%; in assay [2] (Echinochloa, 576 h, Table 89, 45 g a.i./ha, read-out: Control effect (%) of B applied alone in corresponding dose), 8.6%. Also, the pest or weed control at 90 g/ha was found to be 12.9% in assay [1] (Echinochloa oryzoides, 576 h, B 90 g a.i./ha, read-out: Control effect (%) of B applied alone in corresponding dose) and 19% in assay [2] (Echinochloa, 576 h, Table 89, 90 g a.i./ha, read-out: Control effect (%) of B applied alone in corresponding dose). For the same compound, the pest or weed control at 180 g/ha is 50.9% in assay [1] (Echinochloa oryzoides, 576 h, B 180 g a.i./ha, read-out: Control effect (%) of B applied alone in corresponding dose) and 47.7% in assay [2] (Echinochloa, 576 h, Table 89, 180 g a.i./ha, read-out: Control effect (%) of B applied alone in corresponding dose). The pest or weed control at 360 g/ha in assay [1] (Echinochloa oryzoides, 576 h, B 360 g a.i./ha, read-out: Control effect (%) of B applied alone in corresponding dose) amounted to 72.1%; in assay [2] (Echinochloa, 576 h, Table 89, 360 g a.i./ha, read-out: Control effect (%) of B applied alone in corresponding dose) it was 70.1%.
Turning to `CCCCOC(=O)[C@@H](C)Oc1ccc(Oc2ccc(C#N)cc2F)cc1` [cyhalofop-butyl], in assay [1] (setting [7]), the pest or weed control at 9.375 g/ha stood at 5.5%, the pest or weed control at 18.75 g/ha was 15%, the pest or weed control at 37.5 g/ha was 32.1% and the pest or weed control at 75 g/ha stood at 63.5%. In assay [2] (setting [8]), the pest or weed control at 9.375 g/ha is 5.9%, the pest or weed control at 18.75 g/ha is 11.4%, the pest or weed control at 37.5 g/ha was 29.9% and the pest or weed control at 75 g/ha was determined as 69.6%.
As to `CN(C)C(=O)Nc1ccc(Cl)c(Cl)c1` [diuron], in assay [1] (setting [7]), the pest or weed control at 75 g/ha was 4.1%, the pest or weed control at 150 g/ha came to 14%, the pest or weed control at 300 g/ha was 31.3% and the pest or weed control at 600 g/ha came out at 56.2%. Besides, in assay [2] (setting [8]), the pest or weed control at 75 g/ha was 3%, the pest or weed control at 150 g/ha amounted to 16.5%, the pest or weed control at 300 g/ha amounted to 28.6% and the pest or weed control at 600 g/ha was 52.2%.
For the compound `CCCCOC(=O)[C@@H](C)Oc1ccc(Oc2ccc(C(F)(F)F)cn2)cc1` [fluazifop-P-butyl], the “Control effect (%) of B applied alone” value in assay [1] (B 3.75 g a.i./ha) turned out to be 5.5%; in assay [1] (B 7.5 g a.i./ha), 14.2%; in assay [1] (B 15 g a.i./ha), 32.9%; in assay [1] (B 30 g a.i./ha), 71.5%; in assay [2] (fluazifop-P-butyl 3.75 g a.i./ha), 4.2%; in assay [2] (fluazifop-P-butyl 7.5 g a.i./ha), 13.9%. In addition, the “Control effect (%) of B applied alone” value in assay [2] (fluazifop-P-butyl 15 g a.i./ha) came out at 38.4%; in assay [2] (fluazifop-P-butyl 30 g a.i./ha) it was 74.1%.
As for `COC(=O)[C@@H](C)Oc1ccc(Oc2ncc(C(F)(F)F)cc2Cl)cc1` [haloxyfop-P-methyl], the “Control effect (%) of B applied alone” value in assay [1] (B 3.75 g a.i./ha) was 7.9%; in assay [1] (B 7.5 g a.i./ha), 19.0%; in assay [1] (B 15 g a.i./ha), 30.4%; in assay [1] (B 30 g a.i./ha), 66.9%; in assay [2] (haloxyfop-P-methyl 3.75 g a.i./ha) it was 3.0%; in assay [2] (haloxyfop-P-methyl 7.5 g a.i./ha), 15.6%. Besides, the “Control effect (%) of B applied alone” value in assay [2] (haloxyfop-P-methyl 15 g a.i./ha) is recorded as 40.2%; in assay [2] (haloxyfop-P-methyl 30 g a.i./ha), 73.4%.
With `CS(=O)(=O)c1cc(C(F)(F)F)ccc1C(=O)c1cnoc1C1CC1` [isoxaflutole], the pest or weed control at 7.5 g/ha turned out to be 8.1% in assay [1] (Echinochloa oryzoides, 576 h, B 7.5 g a.i./ha, read-out: Control effect (%) of B applied alone in corresponding dose) and 2.1% in assay [2] (Echinochloa, 576 h, Table 85, 7.5 g a.i./ha, read-out: Control effect (%) of B applied alone in corresponding dose). Moreover, the pest or weed control at 15 g/ha came out at 19.6% in assay [1] (Echinochloa oryzoides, 576 h, B 15 g a.i./ha, read-out: Control effect (%) of B applied alone in corresponding dose) and 14.3% in assay [2] (Echinochloa, 576 h, Table 85, 15 g a.i./ha, read-out: Control effect (%) of B applied alone in corresponding dose). Moreover, the pest or weed control at 30 g/ha in assay [1] (Echinochloa oryzoides, 576 h, B 30 g a.i./ha, read-out: Control effect (%) of B applied alone in corresponding dose) worked out at 50.6%; in assay [2] (Echinochloa, 576 h, Table 85, 30 g a.i./ha, read-out: Control effect (%) of B applied alone in corresponding dose), 47.9%. Moreover, the pest or weed control at 60 g/ha in assay [1] (Echinochloa oryzoides, 576 h, B 60 g a.i./ha, read-out: Control effect (%) of B applied alone in corresponding dose) came to 65.5%; in assay [2] (Echinochloa, 576 h, Table 85, 60 g a.i./ha, read-out: Control effect (%) of B applied alone in corresponding dose) it was 63.6%.
For the compound `CCC(=O)Nc1ccc(Cl)c(Cl)c1` [propanil], the pest or weed control at 75 g/ha in assay [1] (setting [3]) was 7.6%; in assay [2] (Echinochloa, 576 h, propanil 75 g a.i./ha, read-out: Control effect (%) of B applied alone in corresponding dose), 3.8%. Moreover, the pest or weed control at 150 g/ha in assay [1] (setting [4]) turned out to be 19.9%; in assay [2] (Echinochloa, 576 h, propanil 150 g a.i./ha, read-out: Control effect (%) of B applied alone in corresponding dose) it was 21.1%. Besides, the pest or weed control at 300 g/ha in assay [1] (setting [5]) turned out to be 37%; in assay [2] (Echinochloa, 576 h, propanil 300 g a.i./ha, read-out: Control effect (%) of B applied alone in corresponding dose) it was 36.4%. Besides, the pest or weed control at 600 g/ha in assay [1] (setting [6]) is 53.9%; in assay [2] (Echinochloa, 576 h, propanil 600 g a.i./ha, read-out: Control effect (%) of B applied alone in corresponding dose) it was 52.5%.
